Values of other authors, collected in US4440778A, “Anti-inflammatory analgesic cataplasm and process for producing the same” (Kowa Co., Ltd., priority 1981, dated 1984).

What was measured:
[1] = administered orally
[2] = not given; remark: listed apart in the source
[3] = mixed with and suspended in base components, pH 7 or higher

In the case of `COc1ccc2c(c1)c(CC(=O)O)c(C)n2C(=O)c1ccc(Cl)cc1` [indomethacin, Indomethacin], the “adverse effects: central nervous system troubles” value [1] is given as “central nervous system troubles such as frontal head ache, drowsiness, dizziness and mental disorders”, the “adverse effects: gastroenteric troubles” value [1] is given as “gastroenteric troubles such as decreased appetite, nausea, vomiting, indigestion, diarrhoea and stomach ache” and the “absorbability through the skin in a pH range of 7 or higher” value [3] is given as “less absorbable through the skin”. The percutaneous absorption (stratum corneum and basal cell layer act as barriers) was “not subject to percutaneous absorption”, the “chemical stability when dissolved in an alkaline solution” value ([2]; alkaline solution) was “chemically unstable and readily decomposable” and the “solubility in an alkaline solution” value ([2]; alkaline solution) was “soluble in an alkaline solution”. The “stability in a pH range of 7 or higher” value [2, 3] was “less stable” and the solubility in water ([2]; water) was “insoluble in water”.
